# Measured values reported in US20060009403A1, “Dna demethylase antisense and chemotherapy combination” (Centre National De La Recherche Scientifique (CNRS), priority 2002, published 2006).
# Test system: H1299 tumor grafts (human non-small cell lung tumors)
# Assay: Growth of H1299 tumor grafts in nude mice after intratumor electrotransfer of antisense plasmid and/or intramuscular bleomycin (Experiments 1 and 2)
# Assay type: in vivo
# Conditions: for Number of tumors cured (tumors no longer measurable): cured/total
# Experimental: Two series of experiments were carried out in nude mice weighing 18 to 20 g. The mice were implanted on one side with H1299 tumor grafts (human non-small cell lung tumors) of approximately 20 mm^3. The tumors developed, to reach a volume of 20 to 150 mm^3. The mice were sorted as a function of the size of the tumors and were divided up into homogeneous batches reaching tumor volumes of 50 to 80 mm^3 (n=10 to 13). The mice were anesthetized with a mixture of ketamine and xylazine.
# A series of tumors was subjected to no treatment.
# Five electrotransfers of 50 μg of plasmid in 80 μl of 150 mM NaCl were carried out in the tumors on the days indicated by the arrows. The plasmid solution was injected longitudinally at the periphery of the tumor using a Hamilton syringe. The lateral faces of the tumors were coated with conducting gel and the tumors were placed between 2 flat stainless steel electrodes 0.4 to 0.7 cm apart. Twenty to 30 seconds after the injection, the plasmids were electrotransferred using a commercial (square) electrical pulse generator (Jouan Electropulser PS 15). Each tumor was subjected to 500 V/cm delivered in 8 pulses lasting 20 msec at a frequency of 1 Hertz.
# Twenty-five μg of bleomycin/animal in 50 μl of 150 mM NaCl were injected bilaterally into the tibialis cranialis muscle and, 30 minutes later, each tumor was subjected to 1 electrotransfer as explained above.
# (§1) Twenty-five μg of bleomycin/animal in 50 μl of 150 mM NaCl were injected bilaterally into the tibialis cranialis muscle and, 30 minutes later, 50 μg of antisense plasmid in 80 μl of 150 mM NaCl were injected and electrotransferred. Four other electrotransfers of 50 μg of antisense plasmid in 80 μl of 150 mM NaCl were subsequently carried out in the tumors on the days indicated by the arrows.
# The tumor volumes were measured individually for each tumor using an electronic slide gauge with a digital display, according to the formula (length×width×thickness)/2.
# The median of the tumor volumes was reported in the form of a graph, as a function of time.
# Five electrotransfers of 80 μl of 150 mM NaCl were carried out in the tumors on the days indicated by the arrows.
# as §1, with “Fifty” for “Twenty-five μg of bleomycin/animal in 50”, “later, an electrotransfer of” for “later,”, “was carried out.” for “were injected and electrotransferred.”
# Twenty-five μg of bleomycin/animal in 50 μl of 150 mM NaCl were injected bilaterally into the tibialis cranialis muscle and, 30 minutes later, each tumor was injected with 80 μl of 150 mM NaCl and subjected to an electrotransfer. Four other electrotransfers of 80 μl of 150 mM NaCl were subsequently carried out in the tumors on the days indicated by the arrows.
# as §1, with “50-μl” for “50 μl”, “in” for “into”, “later, an electrotransfer of” for “later,”, “was carried out.” for “were injected and electrotransferred.”
substance,measurement,setting,value
bleomycin,"Delay in growth, treatment versus untreated",Experiment 1,30 days
same,"D1000, number of days required to reach a tumor volume of 1000 mm^3",Experiment 1 (Table 3),D44 days
same,"Day 1000 mm^3 (median), number of days to reach 1000 mm^3 of tumor volume","Experiment 1, H1299 tumors, 25 μg bleomycin i.m. and/or 5 electrotransfers of 50 μg plasmid",44.40 days
same,Number of tumors cured (tumors no longer measurable),Experiment 1,1/13
same,"Delay in growth, treatment versus electro/NaCl",Experiment 2,17 days
same,"D1000, number of days required to reach a tumor volume of 1000 mm^3",Experiment 2 (Table 3),D38 days
same,"D 1000 mm^3 (median), number of days to reach 1000 mm^3 of tumor volume","Experiment 2, H1299 tumors, 25 μg bleomycin i.m. and/or 5 electrotransfers of 50 μg plasmid",38.00 days
same,Number of tumors cured (tumors no longer measurable),Experiment 2,1/11
same,Tumor (complete) cure rate,"H1299 tumors, summary over Experiments 1 and 2",10%
